How the values were obtained:
[1] = system: MDA-MB-231 breast cancer cells; test: MTT cell growth assay, MDA-MB-231 cells; assay type: cell-based, human
Method: Cells were plated at low density ([…] cells per well, depending on cell line) in the appropriate serum-supplemented medium in 96-well plates (one plate per MTT assay time point) and grown under standard conditions of cell culture. The following day (day 1) oligonucleotide, or water as control, was added to the culture medium to give a final concentration of 15 uM. Further oligonucleotide, equivalent to half the initial dose, was added to the culture medium on days two, three and four. Cells were assayed using the MTT assay (Morgan (1998) Methods. Mol. Biol. 79, 179-183) on days one, three, five, seven and nine after plating. The culture medium was not changed throughout the duration of the experiment (which was the time required for untreated cells to grow to confluence). Experiments were performed in triplicate and bars represent the standard error of the data. For the experiment shown in FIG. 7A, MDA-MB-231 breast cancer cells (5×10^2 cells per well) were plated in a 96-well plate. After twenty-four hours, a single dose of oligonucleotide, or equal volume of PBS as a control, was added to the culture medium to a final concentration of 10 uM. Viable cells were assessed seven days after plating using the MTT assay. For the experiment using 3′-unmodified oligonucleotides (FIG. 7D), serum-supplemented medium was replaced by serum-free medium containing oligonucleotide (or serum-free medium alone in control wells). After incubation at 37° C. for four hours, fetal calf serum (Life Technologies, Inc.) was added to the medium to give 10% v/v.

[2] = molecular target: T1, GRO-binding protein/nucleolin (HeLa nuclear extracts) (Homo sapiens, UniProt P19338); test: UV cross-linking of oligonucleotides to HeLa nuclear extracts; conditions: labeled oligonucleotide with HeLa nuclear extracts; FIG. 6C
T1 construct: HeLa nuclear extracts used in EMSAs were purchased from Promega Inc. (bandshift grade); host or cells: HeLa nuclear extract (bandshift grade), purchased
T1 sequence (P19338 whole entry): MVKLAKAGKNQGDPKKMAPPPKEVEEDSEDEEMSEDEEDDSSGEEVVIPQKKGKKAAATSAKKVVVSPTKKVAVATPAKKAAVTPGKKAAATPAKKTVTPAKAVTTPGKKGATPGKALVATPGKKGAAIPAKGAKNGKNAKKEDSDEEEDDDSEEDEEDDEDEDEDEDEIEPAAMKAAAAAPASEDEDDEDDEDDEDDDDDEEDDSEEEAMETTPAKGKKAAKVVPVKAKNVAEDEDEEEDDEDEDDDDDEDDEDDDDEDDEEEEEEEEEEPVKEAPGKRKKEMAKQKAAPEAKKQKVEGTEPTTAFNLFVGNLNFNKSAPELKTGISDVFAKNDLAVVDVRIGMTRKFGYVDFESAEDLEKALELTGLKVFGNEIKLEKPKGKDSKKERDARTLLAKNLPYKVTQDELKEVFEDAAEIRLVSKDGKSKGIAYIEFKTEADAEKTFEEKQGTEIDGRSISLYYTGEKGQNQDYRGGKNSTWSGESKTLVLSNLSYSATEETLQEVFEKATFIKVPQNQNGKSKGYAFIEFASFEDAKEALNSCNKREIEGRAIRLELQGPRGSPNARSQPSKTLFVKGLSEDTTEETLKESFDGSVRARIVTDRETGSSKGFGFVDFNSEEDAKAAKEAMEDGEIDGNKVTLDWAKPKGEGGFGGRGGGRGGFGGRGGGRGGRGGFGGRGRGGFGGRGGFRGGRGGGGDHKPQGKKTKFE
Method: For the UV crosslinking experiments, samples were incubated as described above (EMSA). They were then placed on ice and irradiated at 5 cm from the source using the “autocross link” function of a Stratagene UV Stratalinker. Following irradiation, samples were electrophoresed under denaturing conditions on a 8% polyacrylamide-SDS gel using a standard Tris glycine buffer and visualized by autoradiography.
To determine the approximate molecular weight of the protein involved in complex A, and to confirm that competition for this complex results from direct binding of the protein to oligonucleotides, a UV cross-linking study was conducted. 5′-Labeled oligonucleotides and HeLa nuclear extracts were incubated alone or in the presence of unlabeled competitor oligonucleotides.
The samples were then irradiated with UV light resulting in cross-link formation between protein residues and thymidines in the oligonucleotide. The protein was thus radiolabeled and could be detected on a SDS-polyacrylamide gel.

[3] = molecular target: T2, TEL-binding protein (GRO-binding protein/nucleolin, MDA-MB-231 nuclear extracts) (Homo sapiens, UniProt P19338); test: Competitive EMSA, labeled TEL and MDA-MB-231 nuclear extracts; conditions: 10 nM unlabeled oligonucleotide; […]
T2 construct: Nuclear and cytoplasmic extracts from MDA-MB-231 cells were prepared using the protocol described in F. M. Ausubel et al; endogenous in cells; host or cells: MDA-MB-231 nuclear extract, prepared in house
T2 sequence (P19338 whole entry): as above

[4] = Detection of G-quartets by UV thermal denaturation/renaturation; assay type: physicochemical; conditions: absorbance at 295 nm; for G-quartet formation (UV annealing curve): FIG. 4
Method: Oligonucleotides were resuspended in Tm buffer (20 mM Tris HCl, pH 8.0, 140 mM KCl, 2.5 mM MgCl2) at a concentration such that A260=0.6 (molar concentrations ranged from […]). Samples were annealed by boiling for five minutes and allowing to cool slowly to room temperature and overnight incubation at 4° C. Thermal denaturation/renaturation experiments were carried out using an Amersham Pharmacia Biotech Ultrospec 2000 instrument equipped with a Peltier effect heated cuvette holder and temperature controller (Amersham Pharmacia Biotech). Absorbance at 295 nm was monitored over a temperature range of 25-95 or 20-90° C. at a heating/cooling rate of 0.5° C./min. To investigate the formation of G-quartet structures by the G-rich oligonucleotides, a U.V. melting technique described by […] et al. (1998) FEBS Lett. 435, 74-78 was used. This method relies on the fact that dissociation of G-quartets leads to a decrease in absorbance at 295 nm and is reported to give a more reliable indication of intramolecular G-quartet formation than measurement at 260 nm.

[5] = system: MDA-MB-231 breast cancer cells; test: Chemotherapeutic agent and GRO combination, MTT assay; assay type: cell-based, human; conditions: cisplatin 0.5 µg/ml, GR029A 8 uM added after two hours, MTT after six days
Method: Cisplatin (in 1% DMSO solution to give a final concentration of […]) was added to the medium of MDA-MB-231 breast cancer cells growing in culture. After two hours, GR029A (in PBS solution to give a final concentration of 8 uM) was added to the medium. After six days, the relative number of viable cells was determined using the MTT assay. Cells treated with GR029A alone received an appropriate volume of 1% DMSO in place of cisplatin. Cells treated with cisplatin alone received an appropriate volume of PBS in place of GR029A.

[6] = molecular target: T3, 106 kDa nuclear protein (p106, GRO-binding protein/nucleolin) (Homo sapiens, UniProt P19338); test: Southwestern blot of HeLa nuclear extracts; conditions: 32P-labeled oligonucleotide, 4° C.; FIG. 6D
T3 construct: HeLa nuclear extracts used in EMSAs were purchased from Promega Inc. (bandshift grade); host or cells: HeLa nuclear extract (bandshift grade), purchased
T3 sequence (P19338 whole entry): as above
Method: Nuclear extracts were electrophoresed on a 8% polyacrylamide-SDS gel and transferred to polyvinylidene difluoride (PVDF) membrane by electroblotting using a Tris glycine/methanol (10% v/v) buffer. Immobilized proteins were denatured and renatured by washing for thirty minutes at 4° C. with 6 M guanidine. HCl followed by washes in 1:1, 1:2 and 1:4 dilutions of 6M guanidine in HEPES binding buffer (25 mM HEPES pH 7.9, 4 mM KCl, 3 mM MgCl2). The membrane was blocked by washing for one hour in a 5% solution of non-fat dried milk (NDM) in binding buffer.
Hybridization of the labeled oligonucleotide (1-4×10^6 cpm) took place for two hours at 4° C. in HEPES binding buffer supplemented with 0.25% NDM, 0.05% Nonidet P […] salmon sperm DNA and […] of an unrelated, mixed sequence 35-mer oligonucleotide (5′-[…] CTTCCTTCCTCTCCA-3′SEQ ID No: 19). Membranes were washed in binding buffer and visualized by autoradiography.
The molecular weight of the nuclear protein was more accurately determined by Southwestern blotting. HeLa nuclear extracts were electrophoresed on an 8% polyacrylamide-SDS gel and transferred to a PVDF membrane. The membrane was blocked and cut into strips. Each strip was incubated at 4° C. with a 32P-labeled G-rich oligonucleotide in the presence of unrelated unlabeled double stranded and single stranded DNA to block non-specific binding.

Molecule | growth of MDA-MB-231 cells, unmodified oligonucleotides ([1]; 10 uM in serum-free medium 4 h, then 10% fetal calf serum, day 7, FIG. 7D) | UV cross-linked protein complex (approximately 100 kDa) [2] | competition for protein binding in competitive EMSA [3] | G-quartet formation (UV annealing curve) [4] | melting temperature of G-quartet transition ([4]; Tm buffer pH 8.0, 140 mM KCl, 0.5° C./min) [°C] | growth modulation [5] [%] | antiproliferative activity, MDA-MB-231 ([1]; single 10 uM dose, FIG. 7A) | hybridization to protein band at 106 kDa (Southwestern blot) [6]
5′-TTAGGGTTAGGGTTAGGGTTAGGG [TEL, reference compound] | modulated the growth of cells | crosslinked to a protein | competed strongly | clear transition | 66 | – | – | –
N.N.[Cl][Pt][Cl] [cis-platin, reference compound] | – | – | – | – | – | 29 | – | –
GRO15B: inactive G-rich oligonucleotide, SEQ ID NO: 22 (TTGGGGGGGGTGGGT; DNA, backbone not given here; further chemistry not fully specified) | – | – | – | no transition characteristic of intramolecular G-quartet formation | – | – | inactive | hybridized only weakly

Source: US8114850B2, “Antiproliferative activity of G-rich oligonucleotides and method of using same to bind to nucleolin” (Advanced Cancer Therapeutics, LLC, priority 1999, dated 2012)
